Earlier results as cited in patent publication US20040062779A1, “Dermatologic composition using ultra-fine/micronized 1-ascorbic acid and other antioxidant ingredients in a stabilized anhydrous vehicle” (priority 2002, published 2004).

Test system: collagen synthesis
Details: in-vitro; Pinnell, Yale J. Biol. Med. 58:554 (1985)

**Q.** Which collagen synthesis does the source give for `O=C1O[C@H]([C@@H](O)CO)C(O)=C1O` [ascorbic acid] here?
**A.** The collagen synthesis was “stimulates collagen synthesis”.
